Here are results for 11 molecules from ChEMBL document CHEMBL5465560, “Selectivity Literature for EUbOPEN Chemogenomic Library” (2024).

In test [1] the target is 5-hydroxytryptamine receptor 2A (Homo sapiens, UniProt P28223). Description: Selectivity interaction (Panel of kinases, GPCRs, ion channels and transporters (enzymatic assay)) EUB0000266bCl HTR2A.
The target of test [2] is Vascular endothelial growth factor receptor 3 (Homo sapiens, UniProt P35916). Description: Selectivity interaction (Upstate Kinase Profiler service (Millipore)) EUB0000056c FLT4. Particulars: at 1 µM.
Test [3] concerns the target Serine/threonine-protein kinase 33 (Homo sapiens) (UniProt Q9BYT3). Nature of the test: Selectivity interaction (ProQinase) EUB0000171b STK33.
Test [4] addresses Serine/threonine-protein kinase WNK1 (Homo sapiens) (UniProt Q9H4A3). Nature of the test: Selectivity interaction (Ambit KINOMEscan and KiNATiv profiling in Jurkat cells) EUB0000090b WNK1. Format: cell-based. The note with it: at 1 µM.
In test [5] the target is STE20/SPS1-related proline-alanine-rich protein kinase (Homo sapiens) (UniProt Q9UEW8). Description: Selectivity interaction (Ambit KINOMEscan and KiNATiv profiling in Jurkat cells) EUB0000090b STK39. It counts as cell-based. The note with it: at 1 µM.
Test [6] concerns the target Serine/threonine-protein kinase PAK 6 (Homo sapiens) (UniProt Q9NQU5). Particulars: at 10 µM.
Test [7] has as its target AP2-associated protein kinase 1 (Homo sapiens, UniProt Q2M2I8). Particulars: at 10 µM.
Test [8] has as its target TRAF2 and NCK-interacting protein kinase (Homo sapiens) (UniProt Q9UKE5). Nature of the test: Selectivity interaction (KinomeScan (DiscoverX)) EUB0001079a TNIK. The note with it: at 1 µM.
In test [9] the target is T1, Cytoplasmic tyrosine-protein kinase BMX (Homo sapiens) (UniProt P51813).
T1 sequence (whole entry): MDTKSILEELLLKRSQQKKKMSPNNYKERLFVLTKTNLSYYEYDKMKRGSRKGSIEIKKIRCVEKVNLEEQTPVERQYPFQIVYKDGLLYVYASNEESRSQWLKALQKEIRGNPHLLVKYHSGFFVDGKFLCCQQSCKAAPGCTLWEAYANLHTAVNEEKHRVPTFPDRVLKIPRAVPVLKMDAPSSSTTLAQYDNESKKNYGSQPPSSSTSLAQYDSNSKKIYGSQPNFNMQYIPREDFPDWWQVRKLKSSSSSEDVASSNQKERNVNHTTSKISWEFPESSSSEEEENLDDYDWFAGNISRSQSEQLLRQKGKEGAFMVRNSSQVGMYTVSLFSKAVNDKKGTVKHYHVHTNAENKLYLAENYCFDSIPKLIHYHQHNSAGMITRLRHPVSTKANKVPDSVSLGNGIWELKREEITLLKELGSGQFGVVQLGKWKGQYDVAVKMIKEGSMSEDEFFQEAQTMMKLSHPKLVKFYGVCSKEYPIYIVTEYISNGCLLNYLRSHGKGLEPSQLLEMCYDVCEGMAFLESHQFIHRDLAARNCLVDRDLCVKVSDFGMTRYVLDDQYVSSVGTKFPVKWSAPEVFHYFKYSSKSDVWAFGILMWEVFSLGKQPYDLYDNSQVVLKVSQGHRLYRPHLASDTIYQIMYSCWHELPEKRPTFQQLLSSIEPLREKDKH
Description: Selectivity interaction (KinomeScan (DiscoverX)) EUB0000092b BMX. Particulars: at 10 µM.

The target in test [10] is Rho-associated protein kinase 2 (Homo sapiens, UniProt O75116). Description: Selectivity interaction (KinomeScan (DiscoverX)) EUB0000607a ROCK2. Particulars: at 10 µM.
In test [11] the target is Ribosomal protein S6 kinase alpha-4 (Homo sapiens) (UniProt O75676). Description: Selectivity interaction (KinomeScan (DiscoverX)) EUB0000311b RPS6KA4. The note with it: at 1 µM.
The target of test [12] is T2, Myosin light chain kinase family member 4 (Homo sapiens) (UniProt Q86YV6).
T2 sequence (whole entry): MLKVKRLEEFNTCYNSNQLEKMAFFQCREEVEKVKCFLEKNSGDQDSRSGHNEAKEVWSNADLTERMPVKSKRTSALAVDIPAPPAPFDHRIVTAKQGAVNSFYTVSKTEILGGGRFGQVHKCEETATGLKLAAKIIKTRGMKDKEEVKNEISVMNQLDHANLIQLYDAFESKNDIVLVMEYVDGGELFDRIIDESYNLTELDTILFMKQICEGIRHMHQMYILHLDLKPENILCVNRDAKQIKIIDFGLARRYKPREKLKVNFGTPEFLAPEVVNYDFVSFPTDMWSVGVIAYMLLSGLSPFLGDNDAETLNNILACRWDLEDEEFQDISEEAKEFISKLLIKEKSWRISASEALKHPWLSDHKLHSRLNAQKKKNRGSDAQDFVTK
The note with it: at 10 µM.

Test [13] has as its target T3, Eukaryotic elongation factor 2 kinase (Homo sapiens) (UniProt O00418).
T3 sequence (whole entry): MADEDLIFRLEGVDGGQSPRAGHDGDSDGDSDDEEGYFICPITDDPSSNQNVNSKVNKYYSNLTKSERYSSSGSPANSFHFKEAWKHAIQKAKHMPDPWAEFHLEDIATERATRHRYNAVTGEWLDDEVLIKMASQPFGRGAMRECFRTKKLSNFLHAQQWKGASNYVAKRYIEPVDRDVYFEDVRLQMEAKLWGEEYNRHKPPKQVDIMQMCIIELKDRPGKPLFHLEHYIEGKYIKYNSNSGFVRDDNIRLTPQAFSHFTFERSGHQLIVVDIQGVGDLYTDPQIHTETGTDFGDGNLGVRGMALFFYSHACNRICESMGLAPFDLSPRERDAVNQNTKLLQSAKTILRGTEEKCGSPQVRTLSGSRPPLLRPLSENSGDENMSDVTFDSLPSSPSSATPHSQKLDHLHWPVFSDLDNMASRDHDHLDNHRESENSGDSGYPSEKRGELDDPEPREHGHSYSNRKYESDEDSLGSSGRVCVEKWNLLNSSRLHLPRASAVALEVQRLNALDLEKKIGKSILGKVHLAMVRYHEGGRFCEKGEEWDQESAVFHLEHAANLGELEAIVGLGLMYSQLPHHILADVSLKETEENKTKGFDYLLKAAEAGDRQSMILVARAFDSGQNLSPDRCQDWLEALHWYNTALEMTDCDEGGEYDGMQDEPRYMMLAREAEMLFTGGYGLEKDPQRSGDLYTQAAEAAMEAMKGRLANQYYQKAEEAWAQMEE
Nature of the test: Selectivity interaction (ActivX KiNativ screen (ex vivo kinase selectivity in human PBMCs)) EUB0001619a EEF2K. It counts as cell-based. The note with it: PBMC, at 1 µM.

Sequence of Serine/threonine-protein kinase 33 (Homo sapiens) (Q9BYT3 whole entry, looked up): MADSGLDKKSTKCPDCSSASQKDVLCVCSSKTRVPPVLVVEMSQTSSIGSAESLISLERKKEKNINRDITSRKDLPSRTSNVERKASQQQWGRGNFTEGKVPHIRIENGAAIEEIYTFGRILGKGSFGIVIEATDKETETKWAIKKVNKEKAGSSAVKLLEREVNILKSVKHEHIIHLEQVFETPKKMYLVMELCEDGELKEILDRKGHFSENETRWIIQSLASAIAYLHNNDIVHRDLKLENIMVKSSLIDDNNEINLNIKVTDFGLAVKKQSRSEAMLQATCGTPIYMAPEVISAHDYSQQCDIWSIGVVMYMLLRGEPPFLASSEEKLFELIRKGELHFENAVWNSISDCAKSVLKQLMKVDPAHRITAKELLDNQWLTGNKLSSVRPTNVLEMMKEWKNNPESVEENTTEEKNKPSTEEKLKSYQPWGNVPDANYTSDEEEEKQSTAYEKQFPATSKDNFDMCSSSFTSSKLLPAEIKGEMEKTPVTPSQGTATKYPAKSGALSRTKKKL
Sequence of Rho-associated protein kinase 2 (O75116 whole entry, looked up): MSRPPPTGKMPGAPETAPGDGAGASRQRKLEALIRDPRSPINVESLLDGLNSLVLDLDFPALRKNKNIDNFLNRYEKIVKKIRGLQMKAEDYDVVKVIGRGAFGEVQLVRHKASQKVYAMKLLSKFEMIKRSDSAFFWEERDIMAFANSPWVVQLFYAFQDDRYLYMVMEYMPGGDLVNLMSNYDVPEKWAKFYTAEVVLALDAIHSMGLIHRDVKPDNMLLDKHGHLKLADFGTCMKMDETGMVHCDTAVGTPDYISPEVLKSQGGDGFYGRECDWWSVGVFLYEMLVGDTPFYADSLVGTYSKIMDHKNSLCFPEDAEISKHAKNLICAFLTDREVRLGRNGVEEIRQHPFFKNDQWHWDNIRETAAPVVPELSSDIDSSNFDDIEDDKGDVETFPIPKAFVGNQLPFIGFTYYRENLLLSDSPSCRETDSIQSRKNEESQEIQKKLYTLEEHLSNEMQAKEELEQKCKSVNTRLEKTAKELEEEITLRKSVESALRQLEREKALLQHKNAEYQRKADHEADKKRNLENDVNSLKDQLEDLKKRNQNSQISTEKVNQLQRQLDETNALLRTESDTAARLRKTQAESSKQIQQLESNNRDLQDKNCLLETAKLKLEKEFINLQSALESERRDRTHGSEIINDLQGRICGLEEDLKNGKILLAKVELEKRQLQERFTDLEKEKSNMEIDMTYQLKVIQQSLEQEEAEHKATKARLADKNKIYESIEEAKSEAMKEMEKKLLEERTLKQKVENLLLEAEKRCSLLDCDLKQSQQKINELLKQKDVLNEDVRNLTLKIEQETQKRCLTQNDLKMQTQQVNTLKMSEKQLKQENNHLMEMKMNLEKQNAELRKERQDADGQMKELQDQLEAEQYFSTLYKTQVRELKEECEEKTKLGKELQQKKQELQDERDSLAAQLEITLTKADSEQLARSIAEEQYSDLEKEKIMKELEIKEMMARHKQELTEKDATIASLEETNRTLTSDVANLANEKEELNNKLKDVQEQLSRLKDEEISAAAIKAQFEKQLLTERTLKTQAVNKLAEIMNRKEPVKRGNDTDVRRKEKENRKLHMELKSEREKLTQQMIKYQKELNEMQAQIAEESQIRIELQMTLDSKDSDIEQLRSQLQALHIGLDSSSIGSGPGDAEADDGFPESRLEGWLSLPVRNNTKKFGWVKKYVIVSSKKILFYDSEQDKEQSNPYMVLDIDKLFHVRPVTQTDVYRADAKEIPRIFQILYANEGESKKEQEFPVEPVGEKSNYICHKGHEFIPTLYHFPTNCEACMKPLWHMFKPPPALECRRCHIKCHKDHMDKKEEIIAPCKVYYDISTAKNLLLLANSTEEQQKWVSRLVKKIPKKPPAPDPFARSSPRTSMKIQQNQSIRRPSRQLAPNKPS
Sequence of Vascular endothelial growth factor receptor 3 (P35916 whole entry): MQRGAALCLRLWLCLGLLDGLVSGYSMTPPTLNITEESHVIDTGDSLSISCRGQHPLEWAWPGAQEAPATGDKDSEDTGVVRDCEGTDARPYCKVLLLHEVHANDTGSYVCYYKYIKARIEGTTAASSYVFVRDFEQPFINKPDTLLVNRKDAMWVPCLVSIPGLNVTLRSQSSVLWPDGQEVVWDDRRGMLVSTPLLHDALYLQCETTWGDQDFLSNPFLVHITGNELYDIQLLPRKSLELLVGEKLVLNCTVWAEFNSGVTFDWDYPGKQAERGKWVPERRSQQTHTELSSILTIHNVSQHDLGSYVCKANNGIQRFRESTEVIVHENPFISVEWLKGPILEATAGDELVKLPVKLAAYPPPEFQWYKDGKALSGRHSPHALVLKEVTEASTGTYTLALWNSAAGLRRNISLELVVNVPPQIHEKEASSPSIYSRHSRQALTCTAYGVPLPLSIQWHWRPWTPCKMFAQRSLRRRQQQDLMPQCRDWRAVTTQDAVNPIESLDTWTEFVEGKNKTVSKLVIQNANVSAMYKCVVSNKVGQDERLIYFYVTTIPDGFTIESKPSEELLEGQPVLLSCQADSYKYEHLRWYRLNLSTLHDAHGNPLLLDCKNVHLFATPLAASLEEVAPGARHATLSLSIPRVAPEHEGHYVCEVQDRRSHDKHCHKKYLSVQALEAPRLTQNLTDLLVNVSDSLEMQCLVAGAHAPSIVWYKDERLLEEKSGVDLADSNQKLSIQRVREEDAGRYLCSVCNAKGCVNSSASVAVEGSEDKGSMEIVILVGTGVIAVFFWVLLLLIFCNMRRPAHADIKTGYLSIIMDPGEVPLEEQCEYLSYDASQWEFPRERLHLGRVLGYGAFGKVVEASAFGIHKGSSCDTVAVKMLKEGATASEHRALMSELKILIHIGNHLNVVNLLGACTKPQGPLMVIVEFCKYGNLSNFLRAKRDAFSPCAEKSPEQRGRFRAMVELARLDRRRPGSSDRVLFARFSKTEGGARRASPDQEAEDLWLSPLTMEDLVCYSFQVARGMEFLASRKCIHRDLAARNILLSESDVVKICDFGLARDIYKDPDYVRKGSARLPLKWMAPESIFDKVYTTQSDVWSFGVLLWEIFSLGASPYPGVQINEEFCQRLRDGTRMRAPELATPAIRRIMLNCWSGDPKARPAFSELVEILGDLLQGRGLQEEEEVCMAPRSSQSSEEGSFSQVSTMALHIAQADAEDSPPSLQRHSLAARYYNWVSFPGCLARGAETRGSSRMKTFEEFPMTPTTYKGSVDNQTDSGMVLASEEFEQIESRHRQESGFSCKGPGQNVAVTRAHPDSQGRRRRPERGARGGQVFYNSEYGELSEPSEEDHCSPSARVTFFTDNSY
Sequence of Serine/threonine-protein kinase PAK 6 (Homo sapiens) (Q9NQU5 whole entry, looked up): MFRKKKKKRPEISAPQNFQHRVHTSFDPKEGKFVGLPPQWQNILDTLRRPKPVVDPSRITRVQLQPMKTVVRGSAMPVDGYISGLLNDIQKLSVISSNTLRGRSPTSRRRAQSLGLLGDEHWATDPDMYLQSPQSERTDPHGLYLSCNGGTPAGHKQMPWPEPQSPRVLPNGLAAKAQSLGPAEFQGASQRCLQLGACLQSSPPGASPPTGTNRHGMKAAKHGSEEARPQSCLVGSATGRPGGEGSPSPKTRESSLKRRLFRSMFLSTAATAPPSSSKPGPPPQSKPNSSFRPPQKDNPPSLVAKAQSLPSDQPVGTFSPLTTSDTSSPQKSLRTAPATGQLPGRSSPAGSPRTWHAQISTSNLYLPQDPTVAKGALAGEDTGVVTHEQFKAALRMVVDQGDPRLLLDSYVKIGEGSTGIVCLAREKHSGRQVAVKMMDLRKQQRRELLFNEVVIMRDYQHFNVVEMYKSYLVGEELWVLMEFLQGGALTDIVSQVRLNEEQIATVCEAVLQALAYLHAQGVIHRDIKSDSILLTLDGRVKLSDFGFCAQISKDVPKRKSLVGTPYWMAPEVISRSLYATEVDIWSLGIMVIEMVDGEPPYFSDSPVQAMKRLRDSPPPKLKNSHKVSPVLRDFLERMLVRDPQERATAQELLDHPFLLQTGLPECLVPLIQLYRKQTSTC
Sequence of Ribosomal protein S6 kinase alpha-4 (Homo sapiens) (O75676 whole entry, looked up): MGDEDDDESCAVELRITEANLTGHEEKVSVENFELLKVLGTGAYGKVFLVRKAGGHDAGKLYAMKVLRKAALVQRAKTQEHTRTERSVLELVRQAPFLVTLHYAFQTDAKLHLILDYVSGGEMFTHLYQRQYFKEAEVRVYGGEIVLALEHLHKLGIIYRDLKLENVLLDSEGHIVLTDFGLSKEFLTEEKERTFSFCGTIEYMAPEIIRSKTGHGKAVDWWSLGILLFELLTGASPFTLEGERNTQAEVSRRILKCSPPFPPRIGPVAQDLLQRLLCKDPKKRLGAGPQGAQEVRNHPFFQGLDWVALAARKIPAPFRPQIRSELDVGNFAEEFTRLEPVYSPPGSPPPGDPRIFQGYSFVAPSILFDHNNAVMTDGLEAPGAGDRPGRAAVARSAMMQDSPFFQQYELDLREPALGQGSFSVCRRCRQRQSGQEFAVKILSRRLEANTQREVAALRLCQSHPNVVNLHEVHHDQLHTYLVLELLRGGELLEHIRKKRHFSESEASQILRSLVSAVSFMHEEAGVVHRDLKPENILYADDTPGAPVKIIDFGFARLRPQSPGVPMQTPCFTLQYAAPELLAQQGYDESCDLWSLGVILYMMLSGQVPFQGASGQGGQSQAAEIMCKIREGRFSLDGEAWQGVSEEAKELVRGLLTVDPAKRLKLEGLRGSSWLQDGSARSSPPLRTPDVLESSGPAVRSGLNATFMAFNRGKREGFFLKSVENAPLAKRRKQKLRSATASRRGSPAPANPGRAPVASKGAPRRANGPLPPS

`CCn1c(-c2nc3cc(C(=O)N4CCCC(N)C4)ccc3n2C)cc2ccccc21` (centres undefined) had a pXC50 in test [1] below 4.4 M.

Turning to `Cc1ccc(-c2ccc3c(ccc4sc5c(c43)NC[C@@H](C)NC5=O)n2)cn1`, the % of inhibition in test [2] came out at 40%.

Regarding `C=CC(=O)Nc1cccc(C(=O)Nc2ccc(Nc3cc(-c4[nH]c(SC)nc4C)ccn3)cc2)c1`, the % of control in test [3] (at 1 µM) was 76%; in test [3] (at 5 µM), 71%.

Take `CN(C)C/C=C/C(=O)Nc1ccc(C(=O)N2CCCC(Nc3ncc(Cl)c(-c4c[nH]c5ccccc45)n3)C2)cc1` (centres undefined): the % of control in test [4] worked out at 80%; in test [5] it was 95%.

As for `CCN(CC)CCCCNc1ncc2cc(-c3cc(OC)cc(OC)c3)c(NC(=O)NC(C)(C)C)nc2n1`, the % of control in test [6] and in [7] was 100% throughout.

`Nc1cnc(N2CCc3cc(S(=O)(=O)Nc4c(F)cc(Cl)cc4F)cc(N4CCCC4=O)c32)nc1` [TP-020n]: in test [8], the % of control was 100%.

`CCC(=O)N1CCN(c2ccc(-n3c(=O)ccc4cnc5ccc(-c6cnc7ccccc7c6)cc5c43)cc2C(F)(F)F)CC1`: the % of control in test [9] worked out at 59%.

`CNC(=O)Nc1ccc(-c2nc(N3CC4CCC(C3)O4)c3cnn(C4CCC5(CC4)OCCO5)c3n2)cc1` returned a % of control in [10] of 100%.

Turning to `CCc1ccccc1C(=O)Nc1n[nH]c2c(C)c(F)c(C3C(C#N)=C(C)N(C)C(C)=C3C#N)cc12` [BAY-3827], in test [11], the % of control was determined as 8.9%.

As to `COCC(=O)NC/C=C/c1ccc2ncnc(Nc3ccc(Oc4ccc(C)nc4)c(C)c3)c2c1` [CP-724714], in [12], the % of control stood at 100%.

In test [13], `N#Cc1cccc(-c2c[nH]c3ncnc(N4CCOCC4)c23)c1` displayed a % of inhibition of 3%.
